For orientation: NOAEL means the highest tested level that showed no adverse finding.

The text below walks through data of patent US12083082B2, “Methods for treating neurodegenerative disorders” (Alzheon, Inc., priority 2018, dated 2024).

The nature of data set [1]: in vivo. The note with it: rat, po. An excerpt: ALZ-801 is a valine conjugate of tramiprosate that has been optimized for improved pharmacokinetic properties and gastrointestinal tolerability. Chronic toxicology studies required for the advancement of ALZ-801 to Phase 3 have been completed, including the nonclinical safety characterization of ALZ-801, and the safety bridge to the extensive nonclinical toxicology and safety data for tramiprosate. […] See Hey et al., Clinical Pharmacokinetics and Safety of ALZ-801, a Novel Prodrug of Tramiprosate in Development for the Treatment of Alzheimer's Disease. Clin Pharmacokinetics 2018; 315-333 and Kocis et al., Elucidating the Abeta42 Anti-Aggregation Mechanism of Action of Tramiprosate in Alzheimer's Disease: Integrating Molecular Analytical Methods. Pharmacokinetic and Clinical Data. CNS Drugs 2017; 31:495-509. […] Both ALZ-801 and tramiprosate have consistent elimination half-life in plasma across species following repeated oral doses of ALZ-801, indicating no potential for accumulation after chronic dosing. Following conversion of ALZ-801 to tramiprosate, tramiprosate is consistently metabolized in vivo into a single major metabolite, 3-sulfopropanoic acid (3-SPA), in humans, mice, rats, dogs and minipigs.

In data set [2] the target is T1, recombinant human Aβ42 peptide (Homo sapiens, UniProt P05067).
T1 construct: recombinant human Aβ42 peptide; purchased BioLegend 843801
As to the kind of experiment: Ion mobility mass spectrometry (IMS MS) anti-Aβ42 oligomer activity / binding study. Details: key to Presence of Aβ42 Pentamer / Presence of Aβ42 Hexamer / Presence of Aβ42 Decamer / Presence of Aβ42 Dimer / Presence of Aβ42 Trimer / Presence of Aβ42 Tetramer: Y = yes, presence of oligomer species; N = no presence of oligomer species. Type of data set: biochemical. Here is the method:
The conditions used for mass spectrometry, using a Waters Synapt G2-S, were as follows: positive polarity in sensitivity mode, capillary=2.5 kV, nebulizer=2 mbar, source temperature=80° C., desolvation temperature=60° C., sample cone setting=35 V, source offset setting=60 V, and mass range=500 to 4000 m/z. These conditions were maintained throughout the study to ensure consistency of the data and to avoid influencing the detection of oligomers due to preferential ionization conditions.
Samples were directly infused into the mass spectrometer at a flow rate of 10 μL/min using a Protea PM-1000 Syringe Pump and Hamilton 1 mL Syringe. The data acquisition of the amyloid peptide was performed using a Waters Synapt G2-S quadrupole time of flight mass spectrometer (Q-TOF MS) with traveling wave ion mobility (Waters Corp., Milford, MA). The data were acquired using the systems sensitivity mode to allow for the detection of the less abundant oligomers. Samples were infused at room temperature. The IMS MS studies were conducted at Protea, Inc. (Morgantown, WV).
1 mg of recombinant human Aβ42 peptide from BioLegend (99% purity, cat #843801) was reconstituted in 200 μL of Fisher Optima LC/MS grade water (cat #W6-1) and vortexed vigorously for 2 minutes to solubilize the peptide creating a 5 mg/mL solution. Samples were then diluted to a final concentration of 22 pmol/μL prior to incubation. The sample mixtures were then incubated at room temperature for 0, 4 and 24 hours. After the acquisition of incubated samples was completed, the raw data were analyzed using the Waters MassLynx v2.4 suite with DriftScover v2.7 to visualize drift times for the peptide.
Aβ42 species characterization using IMS MS was performed by direct infusion at 22 pmol/μL in water. The peptide was prepared in water to maintain the native state conformation of the peptide and ion mobility data acquisition was performed to detect and characterize the conformational changes of the native state monomer and any oligomers that may have formed during the incubation.
The data acquisition for Aβ42 peptide was performed using a Waters Synapt G2-S quadrupole time of flight mass spectrometer (Q-TOF MS) with traveling wave ion mobility (Waters Corp., Milford, MA). The data were acquired using the systems sensitivity mode to allow for the detection of the less abundant oligomers. Samples were infused at room temperature as above.
1 mg of 3-SPA was reconstituted in 1 mL of Fisher Optima LC/MS grade water (cat #W6-1) and vortexed vigorously for 2 minutes until completely dissolved. The sample was then diluted to create […], and 22,000 pmol/μL solutions to perform a 100-fold, and 1,000-fold molar excess for the binding experiments with Aβ42 peptide.
1 mg of recombinant human Aβ42 peptide was reconstituted in 200 μL of Fisher Optima LC/MS grade water and vortexed vigorously to solubilize to a 5 mg/mL solution. Samples were then diluted to their final concentrations prior to incubation. The sample mixtures were incubated at room temperature for 0, 4 and 24 hours, followed by analysis as described above.
To address the high conformational flexibility of Aβ42 and to characterize its interaction with 3-SPA, we used ion mobility mass spectrometry (IMS), with a quadrupole time of flight mass spectrometer (Q-TOF MS) with traveling wave ion mobility. Resulting effect of modulation of Aβ conformational space is the prevention of oligomer formation. We have found not only concentration dependency but also time-dependency of this anti-Aβ42 oligomeric effect of 3-SPA as indicated in FIG. 3 and FIG. 4. 100- vs 1,000-fold molar excess of 3-SPA over Aβ42 results in a different sub-species profile of inhibition of Aβ42 oligomer formation. The activity is also compared with the same excess dependency of tramiprosate.

For data set [3] the following is noted: cited from earlier work.
Setting [4] is: 100:1 excess ratio compound:protein.
The mark [5] stands for this setting: 1000:1 excess ratio compound:protein.

T1 sequence (P05067 672-713 limits assumed): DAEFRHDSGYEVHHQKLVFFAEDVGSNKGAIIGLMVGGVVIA

Regarding `CC(C)[C@H](N)C(=O)NCCCS(=O)(=O)O` [ALZ-801], in data set [1], the NOAEL at 1 month came out at 2000 mg/kg, the NOAEL at 6 month was 1500 mg/kg and the “Tolerability (in words)” value is recorded as “well tolerated”.

As for `NCCCS(=O)(=O)O` [Tramiprosate, 3-amino-1-propanesulfonic acid, reference compound], in data set [2] (setting [4]), the “Presence of Aβ42 Decamer” value was “N”, the “Presence of Aβ42 Dimer” value is reported as “N”, the “Presence of Aβ42 Hexamer” value is “Y” and the “Presence of Aβ42 Pentamer” value is given as “Y”. In data set [2] (setting [4]), the “Presence of Aβ42 Tetramer” value is recorded as “Y” and the “Presence of Aβ42 Trimer” value is recorded as “Y”. Besides, in data set [2] (setting [5]), the “Presence of Aβ42 Decamer” value is given as “N”, the “Presence of Aβ42 Dimer” value is given as “N”, the “Presence of Aβ42 Hexamer” value is recorded as “N” and the “Presence of Aβ42 Pentamer” value was “N”. In data set [2] (setting [5]), the “Presence of Aβ42 Tetramer” value is “N” and the “Presence of Aβ42 Trimer” value is reported as “N”. Further, in data set [2] (24 hours incubation, 1,000-fold excess), the “Inhibition of formation of Aβ42 oligomers (in words)” value is “complete inhibition of formation of Aβ42 oligomers”. Also, the “Safety profile (in words)” value in data set [3] (Phase 3 trials and safety extension, exposures of up to 2.5 years) is “favorable safety profile”. The “Effect on cognition (in words)” value in data set [3] (subgroup analysis of subjects with the ε4 allele of APOE (APOE4)) was “positive and clinically meaningful benefit on cognition”.
